Read-outs that look alike come from different tables or passages of the source.
Columns and labels:
HIV-1 RT K103N (RDDP) = test: RDDP activity of K103N HIV-1 RT; assay type: biochemical
Description: (§1) K103N, Y181C, and Y188L mutations were introduced into the p6HRT-prot vector using the QuikChange protocol (Agilent Technologies, Santa Clara, CA, USA). Enzymes were expressed and purified as the wt-HIV-1 RT.
(§2) RDDP activity was measured as previously reported in 25-µl volume containing 60 mM of Tris‐HCl buffer, pH 8.1, 8 mM of MgCl2, 60 mM of KCl, 13 mM of DTT, 2.5 µM of poly(A)-oligo(dT), 100 µM of dTTP, increasing concentrations of inhibitors, whose dilution were made in water, and different amounts of enzymes according to a linear range of the dose–response curve. The reaction mixture was incubated for 30 min at 37°C and then stopped by the addition of EDTA. Reaction products were detected by pico green addition and measured with a multilabel counter plate reader Victor 3, equipped with filters for 502/523 nm.

HIV-1 RT Y188L (RDDP) = test: RDDP activity of Y188L HIV-1 RT; assay type: biochemical
Description: as §1, §2

MT4 cells [1] = conditions: cited from earlier work
HIV-1 RT Y181C (RDDP) = test: RDDP activity of Y181C HIV-1 RT; assay type: biochemical
Description: as §1, §2

[2] = molecular target: T1, HIV-1 IN (LEDGF-independent) (Human immunodeficiency virus type 1 group M subtype B, UniProt P12497); test: biochemical; conditions: strand-transfer activity with omission of LEDGF/p75; read-out: IC50 IN LEDGF-independent integration
T1 construct: Preparation of recombinant full-length IN and LEDGF proteins; made in house; host or cells: E. coli BL21(DE3)
Description: (§3) Proteins were expressed in E. coli BL21(DE3). Briefly, His-IN was purified by loading the precipitate of cell lysate onto a Ni-Sepharose column and eluting with a […] imidazole gradient (0–500 mM) in a HEPES buffer (50 mM, pH 7.5) containing NaCl (1 M), CHAPS (7.5 mM), and β-mercaptoethanol (2 mM). FLAG-IN was purified by loading the precipitate of cell lysate onto a phenyl-sepharose and ammonium sulfate gradient (0–800 mM) in a HEPES (pH 7.5, 50 mM) buffer containing NaCl (200 mM), CHAPS (7.5 mM), and β-mercaptoethanol (2 mM). Peak fractions were pooled, loaded onto a heparin column, and eluted with an increasing NaCl gradient (200 mM to 1 M) in a HEPES (pH 7.5, 50 mM) buffer containing CHAPS (7.5 mm) and β-mercaptoethanol (2 mM). Fractions containing integrase were pooled and stored in glycerol (10%) at −80°C.
(§4) Briefly, IN (50 nM) was preincubated with increasing concentrations of compounds for 1 h at room temperature in a reaction buffer containing HEPES (20 mM, pH 7.5), DTT (1 mM), glycerol (1%), MgCl2 (20 mM), Brij-35 (0.05%), and bovine serum albumin (BSA) (0.1 mg/ml).

HIV-1 IN-LEDGF binding = molecular target: T2, HIV-1 IN-LEDGF binding (Human immunodeficiency virus type 1 group M subtype B, UniProt P12497); test: biochemical
T2 construct: Preparation of recombinant full-length IN and LEDGF proteins; made in house; host or cells: E. coli BL21(DE3)
Description: as §3
Briefly, His-IN was preincubated with different concentrations of a compound in a buffer containing NaCl (150 mm), MgCl2 (2 mM), Nonidet P-40 (0.1%), BSA (1 mg/ml), and Tris (pH 7.4, 25 mm) for 30 min at room temperature. Then, FLAG-LEDGF was added to the reaction mixture, and a mixture of anti-His6-XL665 and anti-FLAG-EuCryptate antibodies was added.

[3] = molecular target: T3, HIV-1 RT-associated RNase H (Human immunodeficiency virus type 1 group M subtype B, UniProt P04585); test: HIV-1 DNA polymerase-independent RNase H activity determination; assay type: biochemical
T3 construct: The 1:1 ratio between the p66/p51 subunits was also verified; His tag (implied only by Ni-NTA IMAC purification); made in house; host or cells: Escherichia coli M15
Description: (§5) Escherichia coli strain M15 containing the p6HRT-prot vector (provided by Stuart Le Grice laboratory (NCI Frederick)) was grown to an optical density at 600 nm of 0.7 and induced with 1.7 mM of isopropyl β-D-1-thiogalactopyranoside (IPTG) for 4 h. Protein purification was carried out with a BioLogic LP system (Bio-Rad, Hercules, CA, USA) using a combination of immobilized metal affinity chromatography (IMAC) and ion exchange chromatography. Cell pellets were resuspended in lysis buffer (50 mM of sodium phosphate buffer, pH 7.8, containing 0.5 mg/mL of lysozyme), incubated on ice for 20 min, and, after the addition of NaCl to a final concentration of 0.3 M, were sonicated and centrifuged at 30,000 ×g for 1 h. The supernatant was loaded onto a Ni^2+-NTA-Sepharose column pre-equilibrated with loading buffer (50 mM of sodium phosphate buffer, pH 7.8, containing 0.3 M of NaCl, 10% glycerol, and 10 mM of imidazole) and washed thoroughly with wash buffer (50 mM of sodium phosphate buffer, pH 6.0, containing 0.3 M of NaCl, 10% glycerol, and 80 mM of imidazole). RT was eluted with an imidazole gradient in the wash buffer (0–0.5 M). Fractions were collected, and protein purity was checked by sodium dodecyl sulfate–polyacrylamide gel electrophoresis (SDS-PAGE) and found to be higher than 90%. The 1:1 ratio between the p66/p51 subunits was also verified. Enzyme-containing fractions were pooled and diluted 1:1 with 50 mM of sodium phosphate buffer, pH 7.0, containing 10% glycerol, and then loaded into a Hi-trap heparin HP GE (Healthcare LifeScience) pre-equilibrated with 10 column volumes of loading buffer (50 mM of sodium phosphate buffer, pH 7.0, containing 10% glycerol, and 150 mM of NaCl). The column was then washed with loading buffer, and the RT was eluted with Elute Buffer 2 (50 mM of sodium phosphate, pH 7.0, 10% glycerol, 1 M of NaCl). Fractions were collected, and the protein was dialyzed and stored in a buffer containing 50 mM of Tris-HCl, pH 7.0, 25 mM of NaCl, 1 mM of EDTA, and 50% glycerol. Catalytic activities and protein concentrations were determined. Enzyme-containing fractions were pooled, and aliquots were stored at −80°C.
HIV RT-associated RNase H activity was measured as described ([Corona et al., 2016b]) in a 100-µl reaction volume containing 50 mM of Tris-HCl buffer, pH 7.8, 6 mM of MgCl2, 1 mM of dithiothreitol (DTT), 80 mM of KCl, 0.25 µM of hybrid RNA/DNA 5′-[…]-Fluorescin-3′ (high-performance liquid chromatography (HPLC), dry, QC: Mass Check) (available from Metabion) 5′-Dabcyl-[…]-3′ (HPLC, dry, QC: Mass Check), increasing concentrations of inhibitors, whose dilution were made in water, and different amounts of enzymes according to a linear range of the dose–response curve. The reaction mixture was incubated for 1 h at 37°C and stopped by the addition of EDTA, and products were measured with a multilabel counter plate reader Victor 3 equipped with filters for 490/528 nm.

[4] = molecular target: T4, HIV-1 IN (LEDGF/p75-dependent) (Human immunodeficiency virus type 1 group M subtype B, UniProt P12497); test: biochemical; assay type: biochemical; conditions: strand-transfer activity in the presence of LEDGF/p75; read-out: IC50 IN LEDGF-dependent integration
T4 construct: Preparation of recombinant full-length IN and LEDGF proteins; made in house; host or cells: E. coli BL21(DE3)
Description: as §3, §4

MT4 cells [5] = test: Viability of infected MT4 cells (cytotoxicity); assay type: cell-based; conditions: no toxicity up to the highest concentration tested
Description: (§6) HIV-1 replication was carried out in MT4 cells as previously reported ([Corona et al., 2016a]) using a molecular clone derived from the pNL4-3 ([Thierry et al., 2015]). A total of 120 ng of p24^gag antigen per 10^6 cells, corresponding to a multiplicity of infection (m.o.i.) of 0.3, was used for infection. […] Flow cytometry analysis was performed on a FACSCalibur flow cytometer (BD Biosciences, San Jose, CA, USA), and the results were analyzed using the […] software.

[6] = Viability of infected MT4 cells (cytotoxicity); assay type: cell-based; conditions: human, infected MT4 cells viability, three independent experiments, average ± standard deviation
Description: as §6

HIV-1 [7] = test: HIV-1 replication inhibition in MT4 cells; assay type: cell-based
Description: as §6

[8] = molecular target: T5, HIV-1 IN-IN subunit exchange (Human immunodeficiency virus type 1 group M subtype B, UniProt P12497); test: HTRF-based IN subunit exchange assay; assay type: binding
T5 construct: Preparation of recombinant full-length IN and LEDGF proteins; made in house; host or cells: E. coli BL21(DE3)
Description: as §3
His and FLAG-tagged INs were mixed in Tris (pH 7.4, 25 mm) buffer containing NaCl (150 mm), MgCl2 (2 mM), Nonidet P-40 (0.1%), and BSA (1 mg/ml). Test compounds were then added to the mixture, and incubation was carried out for 2.5 h at room temperature.

HIV-1 RT-associated RDDP = molecular target: T6, HIV-1 RT-associated RDDP (Human immunodeficiency virus type 1 group M subtype B, UniProt P04585); test: HIV-1 RNA-dependent DNA polymerase activity determination; assay type: biochemical
T6 construct: The 1:1 ratio between the p66/p51 subunits was also verified; His tag (implied only by Ni-NTA IMAC purification); made in house; host or cells: Escherichia coli M15
Description: as §5, §2

HIV-1 [9] = conditions: read-out: HIV-1 EC50; viral replication in MT4 cells; ref Corona et al. (2014a); cited from earlier work
[10] = wt HIV-1 RT, three independent experiments, average ± standard deviation, read-out: RNase H IC50
[11] = Human immunodeficiency virus 1, MT4, viral replication in MT4 cells, three independent experiments, average ± standard deviation, read-out: HIV-1 EC50
[12] = viral replication in MT4 cells, three independent experiments, average ± standard deviation, read-out: HIV-1 EC50
[13] = wt HIV-1 RT, three independent experiments, average ± standard deviation, read-out: RDDP IC50

Compound | IC50 [2] [µM] | IC50 (HIV-1 IN-LEDGF binding) [µM] | IC50 [3, 10] [µM] | IC50 [4] [µM] | CC50 ([6]; MT4 cells infected with HIV-1) [µM] | EC50 (HIV-1 [7]; [11]) [µM] | IC50 [8] [µM] | IC50 (HIV-1 RT-associated RDDP; [13]) [µM] | also measured
O=C1Nc2ccc(Cl)cc2[C@@](C#CC2CC2)(C(F)(F)F)O1 [EFV, efavirenz] | – | – | – | – | – | – | – | – | increase in IC50 vs wt RT, RDDP activity (HIV-1 RT K103N (RDDP)): 9.1 fold; increase in IC50 vs wt RT, RDDP activity (HIV-1 RT Y188L (RDDP)): 14 fold; CC50 (MT4 cells [1]; read-out: MT4 CC50, MT4 cells viability, ref Corona et al. (2014a)): > 0.31 µM; increase in IC50 vs wt RT, RDDP activity (HIV-1 RT Y181C (RDDP)): 3.5 fold
O=C1Nc2ccc([N+](=O)[O-])cc2/C1=N/Nc1nc(-c2ccc(Cl)cc2)cs1 [1a] | 100 | > 100 | 4.6 ± 1.4 | 22.4 ± 4.65 | > 100 | < 20 | 22.8 ± 2.6 | 10 ± 0.5 | toxicity against MT4 cells (MT4 cells [5]): > 100 µM; EC50 (HIV-1 [7]; [12]): 25 ± 2.1 µM
O=C1Nc2ccc([N+](=O)[O-])cc2/C1=N/Nc1nc(-c2ccc(Br)cc2)cs1 [3a] | 73.5 ± 13.5 | > 100 | 4.3 ± 0.7 | 15.5 ± 3 | > 100 | < 20 | 18.5 ± 3.5 | 8.5 ± 0.5 | toxicity against MT4 cells (MT4 cells [5]): > 100 µM; EC50 (HIV-1 [7]; [12]): 32 ± 3.2 µM
O=C1Nc2ccc([N+](=O)[O-])cc2/C1=N/Nc1nc(-c2ccc([N+](=O)[O-])cc2)cs1 [4a] | – | – | – | – | – | – | – | – | IC50 [3]: 7.6 ± 1.4 µM; CC50 [6]: > 100 µM; EC50 (HIV-1 [7]; Human immunodeficiency virus 1, MT4, read-out: HIV-1 EC50): > 100 µM; IC50 (HIV-1 RT-associated RDDP): 21 ± 3 µM
CCOC(=O)C(=O)CC(=O)/C=C/c1cccn1Cc1ccccc1Cl [RDS1759] | – | – | – | – | – | – | – | – | EC50 (HIV-1 [9]): 2100 nM; CC50 (MT4 cells [1]): > 50 µM
N#Cc1ccc(-c2csc(NN=C3C(=O)Nc4ccccc43)n2)cc1 [RMNC6, reference compound] | > 100 | > 100 | – | > 100 | – | – | > 100 | – | –
N#Cc1ccc(-c2csc(N/N=C3\C(=O)Nc4ccc(Cl)cc43)n2)cc1 [6b] | – | – | 7.8 ± 0.1 | – | 95 ± 5 | > 95 | – | 34 ± 6 | –
COc1ccc(-c2csc(N/N=C3\C(=O)Nc4ccc(Cl)cc43)n2)cc1 [11b] | – | – | 7 ± 1 | – | 70 ± 9 | > 70 | – | 16.2 ± 2.8 | –

Source: PMC10328743, “5-Nitro-3-(2-(4-phenylthiazol-2-yl)hydrazineylidene)indolin-2-one derivatives inhibit HIV-1 replication by a multitarget mechanism of action” (Frontiers in Cellular and Infection Microbiology, 2023)
